Laboratory results from patent US20150274719A1, “AMINO-SUBSTITUTED IMIDAZO[1,2-A]PYRIDINECARBOXAMIDES AND THEIR USE” (BAYER PHARMA AKTIENGESELLSCHAFT, priority 2012, published 2015).
Counter-ions that a name gives are not always drawn. Like-named read-outs stand apart in the source and are kept apart here.

How the values were obtained:
[1] = molecular target: T1, recombinant guanylate cyclase reporter cell line (Rattus norvegicus, UniProt P19686+P20595); assay: Action on recombinant guanylate cyclase reporter cell line; format: cell-based; conditions: in some cases mean values from individual determinations
T1 construct: expressed in transfected cells; host or cells: recombinant reporter cell line
T1 sequence (P19686 1-690): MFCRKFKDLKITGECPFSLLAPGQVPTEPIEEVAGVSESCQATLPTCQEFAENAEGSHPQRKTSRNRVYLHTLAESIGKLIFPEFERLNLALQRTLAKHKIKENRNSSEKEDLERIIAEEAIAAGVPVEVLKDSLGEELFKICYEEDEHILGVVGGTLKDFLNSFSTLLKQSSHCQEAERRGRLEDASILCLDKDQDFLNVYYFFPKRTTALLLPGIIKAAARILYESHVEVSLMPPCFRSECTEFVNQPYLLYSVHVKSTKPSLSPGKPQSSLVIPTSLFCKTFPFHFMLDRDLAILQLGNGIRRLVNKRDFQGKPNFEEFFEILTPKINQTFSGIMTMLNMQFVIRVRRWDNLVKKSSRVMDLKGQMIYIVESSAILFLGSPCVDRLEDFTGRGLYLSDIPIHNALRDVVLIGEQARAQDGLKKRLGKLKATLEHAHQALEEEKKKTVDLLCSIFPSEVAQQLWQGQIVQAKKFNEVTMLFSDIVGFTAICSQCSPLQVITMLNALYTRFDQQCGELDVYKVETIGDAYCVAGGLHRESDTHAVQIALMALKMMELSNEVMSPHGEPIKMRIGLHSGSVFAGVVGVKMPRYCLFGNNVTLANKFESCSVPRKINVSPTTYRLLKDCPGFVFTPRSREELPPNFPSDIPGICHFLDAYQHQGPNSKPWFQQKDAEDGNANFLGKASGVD
T1 sequence (P20595 1-619): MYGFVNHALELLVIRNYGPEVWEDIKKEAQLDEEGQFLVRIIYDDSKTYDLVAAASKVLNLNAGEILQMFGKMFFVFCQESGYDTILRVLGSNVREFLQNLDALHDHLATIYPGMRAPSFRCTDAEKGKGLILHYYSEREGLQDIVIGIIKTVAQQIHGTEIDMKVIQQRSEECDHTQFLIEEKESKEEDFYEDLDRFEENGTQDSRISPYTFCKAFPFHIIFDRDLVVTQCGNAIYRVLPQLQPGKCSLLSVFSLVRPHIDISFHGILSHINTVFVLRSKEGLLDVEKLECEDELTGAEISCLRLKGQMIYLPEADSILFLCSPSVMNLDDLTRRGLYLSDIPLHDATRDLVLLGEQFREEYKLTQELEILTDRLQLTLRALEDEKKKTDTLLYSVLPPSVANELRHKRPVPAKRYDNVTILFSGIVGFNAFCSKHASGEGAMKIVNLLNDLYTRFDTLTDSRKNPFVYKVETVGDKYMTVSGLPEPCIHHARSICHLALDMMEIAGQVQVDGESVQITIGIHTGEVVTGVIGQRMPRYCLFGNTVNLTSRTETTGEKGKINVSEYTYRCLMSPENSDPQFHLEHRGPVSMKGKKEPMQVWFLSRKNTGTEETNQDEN
Outline: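 MEC values, meaning the lowest concentration producing a detectable response, were taken from a recombinant cyclase reporter cell assay. Where repeated, individual determinations were averaged.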

[2] = Determination of pharmacokinetic parameters following intravenous and oral administration (rats); format: in vivo, male Wistar rats; conditions: intravenous administration in rats
Procedure: B-6. Determination of Pharmacokinetic Parameters Following Intravenous and Oral Administration
The pharmacokinetic parameters of the compounds according to the invention are determined in male CD-1 mice, male Wistar rats and female beagles. Intravenous administration in the case of mice and rats is carried out by means of a species-specific plasma/DMSO formulation, and in the case of dogs by means of a water/PEG400/ethanol formulation. In all species, oral administration of the dissolved substance is performed via gavage, based on a water/PEG400/ethanol formulation. The taking of blood from rats is simplified by inserting a silicone catheter into the right Vena jugularis externa prior to substance administration. The operation is carried out at least one day prior to the experiment with […] and administration of an analgesic (atropin/Rimadyl (3/1) 0.1 ml s.c.). The blood is taken (generally more than 10 time points) within a time window including terminal time points of at least 24 to a maximum of 72 hours after substance administration. When the blood is taken, it is passed into heparinised tubes. Then the blood plasma is obtained by centrifugation and is optionally stored at −20° C. until further processing.
An internal standard (which may also be a chemically unrelated substance) is added to the samples of the compounds according to the invention, calibration samples and qualifiers, and there follows protein precipitation by means of excess acetone. Addition of a buffer solution matched to the LC conditions, and subsequent vortexing, is followed by centrifugation at 1000 g. The supernatant is analysed by LC-MS/MS using C18 reversed-phase columns and variable mobile phase mixtures. The substances are quantified via the peak heights or areas from extracted ion chromatograms of specific selected ion monitoring experiments.
The plasma concentration/time plots determined are used to calculate the pharmacokinetic parameters such as AUC, Cmax, t1/2 (terminal half life), F (bioavailability), MRT (mean residence time) and CL (clearance), using a validated pharmacokinetic calculation program.
Since the substance quantification is carried out in plasma, it is necessary to determine the blood/plasma distribution of the substance in order to be able to adjust the pharmacokinetic parameters correspondingly. For this purpose, a defined amount of substance is incubated in heparinized whole blood of the species in question in a rocking roller mixture for 20 min. After centrifugation at 1000 g, the plasma concentration is measured (by means of LC-MS/MS; see above) and determined by calculating the ratio of the Cblood/Cplasma value.

[3] = male, Wistar, rat, plasma, iv, read-out: MRT

Question: For `CCCC(C)(N)CNC(=O)c1c(C)nc2c(OCc3c(F)cccc3F)cc(C3CC3)cn12` (single isomer, unassigned; enantiomer b) [Example 281, ent-N-(2-amino-2-methylpentyl)-6-cyclopropyl-8-[(2,6-difluorobenzyl)oxy]-2-methylimidazo[1,2-a]pyridine-3-carboxamide (Enantiomer B)], which “MEC (minimal effective concentration)” value [1] is on record?
Answer: 0.3 µM

Question: What about the AUCnorm [2] of the same molecule?
Answer: 0.28 kg·h/L

Question: What about the CLblood [2] of the same molecule?
Answer: 39 mL/min/kg

Question: And the half-life ([2]; male, Wistar, rat, plasma, iv)?
Answer: 5.5 h

Question: What about the MRT [2, 3] of the same molecule?
Answer: 6.9 h

Question: With `Cc1nc2c(OCc3c(F)cccc3F)cccn2c1C(=O)NC(CN)CCCC(F)(F)F` (racemic) [Example 4, rac-N-(1-amino-6,6,6-trifluorohexan-2-yl)-8-[(2,6-difluorobenzyl)oxy]-2-methylimidazo[1,2-a]pyridine-3-carboxamide] as the molecule, how does the AUCnorm [2] read?
Answer: 0.58 kg·h/L

Question: What about the CLblood [2] of the same molecule?
Answer: 27.8 mL/min/kg

Question: What about the half-life ([2]; male, Wistar, rat, plasma, iv) of the same molecule?
Answer: 5.2 h

Question: What about the MRT [2, 3] of the same molecule?
Answer: 6.7 h

Question: Which “MEC (minimal effective concentration)” value [1] does the source give for `CCCC(C)(N)CNC(=O)c1c(C)nc2c(OCc3c(F)ccc(F)c3F)cc(C)cn12` (single isomer, unassigned) [Example 295, ent-N-(2-amino-2-methylpentyl)-2,6-dimethyl-8-[(2,3,6-trifluorobenzyl)oxy]imidazo[1,2-a]pyridine-3-carboxamide] here?
Answer: 0.10 µM

Question: What about the AUCnorm [2] of the same molecule?
Answer: 0.56 kg·h/L

Question: And the CLblood [2]?
Answer: 20.5 mL/min/kg

Question: What about the half-life ([2]; male, Wistar, rat, plasma, iv) of the same molecule?
Answer: 6.6 h

Question: And the MRT [2, 3]?
Answer: 8.8 h

Question: For `Cc1cc(OCc2c(F)cccc2F)c2nc(C)c(C(=O)NCC(C)(N)CF)n2c1` (single isomer, unassigned; enantiomer b) [Example 284, ent-N-(2-amino-3-fluoro-2-methylpropyl)-8-[(2,6-difluorobenzyl)oxy]-2,6-dimethylimidazo[1,2-a]pyridine-3-carboxamide (Enantiomer B)], which “MEC (minimal effective concentration)” value [1] is on record?
Answer: 0.1 µM

Question: What about the AUCnorm [2] of the same molecule?
Answer: 1.20 kg·h/L

Question: What about the CLblood [2] of the same molecule?
Answer: 16.2 mL/min/kg

Question: What about the MRT [2] of the same molecule?
Answer: 5.3 h

Question: And the t1/2 [2]?
Answer: 4.6 h

Question: For `Cc1cc(OCc2c(F)cccc2F)c2nc(C)c(C(=O)NCC(N)C(C)C)n2c1` (single isomer, unassigned) [Example 223, ent-N-(2-Amino-3-methylbutyl)-8-[(2,6-difluorobenzyl)oxy]-2,6-dimethylimidazo[1,2-a]pyridine-3-carboxamide], which “MEC (minimal effective concentration)” value [1] is on record?
Answer: 0.30 µM

Question: What about the AUCnorm [2] of the same molecule?
Answer: 0.87 kg·h/L

Question: What about the CLblood [2] of the same molecule?
Answer: 18.2 mL/min/kg

Question: And the half-life ([2]; male, Wistar, rat, plasma, iv)?
Answer: 4.8 h

Question: What about the MRT [2, 3] of the same molecule?
Answer: 6.1 h

Question: For `CCC(C)(N)CNC(=O)c1c(C)nc2c(OCc3c(F)cccc3F)cc(C(F)F)cn12` (single isomer, unassigned; enantiomer a) [Example 287, ent-N-(2-amino-2-methylbutyl)-8-[(2,6-difluorobenzyl)oxy]-6-(difluoromethyl)-2-methylimidazo[1,2-a]pyridine-3-carboxamide Formate (Enantiomer A)], which “MEC (minimal effective concentration)” value [1] is on record?
Answer: 0.3 µM

Question: And the AUCnorm [2]?
Answer: 0.66 kg·h/L

Question: What about the CLblood [2] of the same molecule?
Answer: 29.3 mL/min/kg

Question: What about the half-life ([2]; male, Wistar, rat, plasma, iv) of the same molecule?
Answer: 5.4 h

Question: And the MRT [2, 3]?
Answer: 8.4 h

Question: Which “MEC (minimal effective concentration)” value [1] does the source give for `Cc1nc2c(OCc3c(F)cccc3F)cc(C(F)F)cn2c1C(=O)NCC(C)(N)CF` (single isomer, unassigned; enantiomer b) [Example 292, ent-N-(2-amino-3-fluoro-2-methylpropyl)-8-[(2,6-difluorobenzyl)oxy]-6-(difluoromethyl)-2-methylimidazo[1,2-a]pyridine-3-carboxamide (Enantiomer B)] here?
Answer: 0.03 µM

Question: What about the AUCnorm [2] of the same molecule?
Answer: 0.56 kg·h/L

Question: What about the CLblood [2] of the same molecule?
Answer: 36.2 mL/min/kg

Question: What about the MRT [2] of the same molecule?
Answer: 4.1 h

Question: And the t1/2 [2]?
Answer: 3.2 h

Question: Which “MEC (minimal effective concentration)” value [1] does the source give for `Cc1cc(OCc2c(F)cccc2F)c2nc(C)c(C(=O)NCC(C)(N)C3CC3)n2c1` (single isomer, unassigned; enantiomer b) [Example 261, ent-N-(2-Amino-2-cyclopropylpropyl)-8-[(2,6-difluorobenzyl)oxy]-2,6-dimethylimidazo[1,2-a]-pyridine-3-carboxamide (Enantiomer B)] here?
Answer: 0.10 µM

Question: What about the AUCnorm [2] of the same molecule?
Answer: 0.47 kg·h/L

Question: And the CLblood [2]?
Answer: 38.2 mL/min/kg

Question: And the half-life ([2]; male, Wistar, rat, plasma, iv)?
Answer: 3.7 h

Question: And the MRT [2, 3]?
Answer: 4.7 h

Question: With `Cc1cc(OCc2c(F)ccc(F)c2F)c2nc(C)c(C(=O)NCC(C)(N)CCC(F)(F)F)n2c1` (single isomer, unassigned) [Example 410, ent-N-(2-amino-5,5,5-trifluoro-2-methylpentyl)-2,6-dimethyl-8-[(2,3,6-trifluorobenzyl)oxy]imidazo[1,2-a]pyridine-3-carboxamide] as the molecule, how does the “MEC (minimal effective concentration)” value [1] read?
Answer: 0.10 µM

Question: What about the AUCnorm [2] of the same molecule?
Answer: 0.21 kg·h/L

Question: And the CLblood [2]?
Answer: 46.2 mL/min/kg

Question: And the MRT [2]?
Answer: 5.4 h

Question: And the half-life ([2]; male, Wistar, rat, plasma, iv)?
Answer: 4.3 h

Question: Which “MEC (minimal effective concentration)” value [1] does the source give for `Cc1cc(OCc2c(F)cccc2F)c2nc(C)c(C(=O)NCC(C)(N)CCC(F)(F)F)n2c1` (single isomer, unassigned) [Example 409, ent-N-(2-amino-5,5,5-trifluoro-2-methylpentyl)-8-[(2,6-difluorobenzyl)oxy]-2,6-dimethylimidazo[1,2-a]pyridine-3-carboxamide] here?
Answer: 0.03 µM

Question: And the AUCnorm [2]?
Answer: 0.28 kg·h/L

Question: And the CLblood [2]?
Answer: 35.8 mL/min/kg

Question: What about the MRT [2] of the same molecule?
Answer: 7.4 h

Question: And the t1/2 [2]?
Answer: 5.8 h

Question: For `CCC(C)(N)CNC(=O)c1c(C)nc2c(OCc3c(F)ccc(F)c3F)cc(C)cn12` (single isomer, unassigned; enantiomer b) [Example 275, ent-N-(2-Amino-2-methylbutyl)-2,6-dimethyl-8-[(2,3,6-trifluorobenzyl)oxy]imidazo[1,2-a]-pyridine-3-carboxamide (Enantiomer B)], which “MEC (minimal effective concentration)” value [1] is on record?
Answer: 0.10 µM

Question: And the AUCnorm [2]?
Answer: 0.64 kg·h/L

Question: And the CLblood [2]?
Answer: 20.8 mL/min/kg

Question: And the MRT [2]?
Answer: 7.2 h

Question: What about the t1/2 [2] of the same molecule?
Answer: 4.1 h

Question: For `Cc1cc(OCc2c(F)cccc2F)c2nc(C)c(C(=O)NCC3(N)CCCCC3)n2c1` [Example 307, N-[(1-aminocyclohexyl)methyl]-8-[(2,6-difluorobenzyl)oxy]-2,6-dimethylimidazo[1,2-a]pyridine-3-carboxamide], which “MEC (minimal effective concentration)” value [1] is on record?
Answer: 0.65 µM

Question: And the AUCnorm [2]?
Answer: 0.35 kg·h/L

Question: What about the CLblood [2] of the same molecule?
Answer: 29.7 mL/min/kg

Question: What about the half-life ([2]; male, Wistar, rat, plasma, iv) of the same molecule?
Answer: 6.9 h

Question: What about the MRT [2, 3] of the same molecule?
Answer: 9.8 h
